# Data as given in article PMC10869683, “Structure of recombinant formate dehydrogenase from Methylobacterium extorquens (MeFDH1)” (Scientific Reports, 2024).
# What was measured:
# [1] = target: T1, recombinant MeFDH1 (alpha/beta heterodimer), MeFDH1-β FMN / diaphorase site (Methylorubrum extorquens, UniProt C5ATT6); assay: cryo-EM structure, […] Å; assay type: binding; conditions: FMN site at the center of the beta subunit
# T1 construct: gene fdh1B; same complex as P1, site in beta subunit; C-terminal His6 on alpha; expressed in M. extorquens AM1 fdh1 knockout; heterodimer ~169 kDa; with Formate dehydrogenase subunit alpha (tungsten-containing formate dehydrogenase alpha subunit)
# [2] = target: T2, recombinant MeFDH1 (alpha/beta heterodimer), MeFDH1-α active site (Methylorubrum extorquens, UniProt C5ATT7); conditions: 30 mM potassium formate, 0.5 mM NAD+, 50 mM MOPS, 30 °C; pH not given
# T2 construct: gene fdh1A
# T2 sequence (C5ATT7 1-989): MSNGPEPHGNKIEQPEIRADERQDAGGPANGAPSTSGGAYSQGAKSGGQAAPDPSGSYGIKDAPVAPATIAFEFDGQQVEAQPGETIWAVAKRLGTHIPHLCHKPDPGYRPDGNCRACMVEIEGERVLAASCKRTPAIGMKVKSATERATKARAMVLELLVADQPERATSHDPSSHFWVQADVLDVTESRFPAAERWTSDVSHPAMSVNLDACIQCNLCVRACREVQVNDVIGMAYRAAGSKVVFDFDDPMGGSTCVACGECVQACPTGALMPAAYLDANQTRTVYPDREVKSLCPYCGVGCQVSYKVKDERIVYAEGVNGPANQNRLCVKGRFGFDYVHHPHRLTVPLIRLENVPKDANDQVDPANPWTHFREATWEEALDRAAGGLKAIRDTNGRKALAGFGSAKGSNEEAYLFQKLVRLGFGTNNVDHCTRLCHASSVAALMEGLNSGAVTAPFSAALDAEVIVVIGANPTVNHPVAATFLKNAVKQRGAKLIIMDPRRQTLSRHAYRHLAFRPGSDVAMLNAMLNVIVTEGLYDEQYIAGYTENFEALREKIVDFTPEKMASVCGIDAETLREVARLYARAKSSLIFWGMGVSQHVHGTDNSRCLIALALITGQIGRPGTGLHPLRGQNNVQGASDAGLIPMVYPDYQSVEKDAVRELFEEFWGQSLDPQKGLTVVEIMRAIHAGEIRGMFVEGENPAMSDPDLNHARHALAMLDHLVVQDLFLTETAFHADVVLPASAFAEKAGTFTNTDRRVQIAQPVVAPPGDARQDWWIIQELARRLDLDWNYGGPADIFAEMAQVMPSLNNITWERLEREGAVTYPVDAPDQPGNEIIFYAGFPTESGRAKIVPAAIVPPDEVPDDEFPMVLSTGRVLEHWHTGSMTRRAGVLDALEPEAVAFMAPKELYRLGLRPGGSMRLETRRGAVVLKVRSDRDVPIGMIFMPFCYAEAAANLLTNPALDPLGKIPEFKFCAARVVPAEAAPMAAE
# T2 sequence (C5ATT6 1-572 partner): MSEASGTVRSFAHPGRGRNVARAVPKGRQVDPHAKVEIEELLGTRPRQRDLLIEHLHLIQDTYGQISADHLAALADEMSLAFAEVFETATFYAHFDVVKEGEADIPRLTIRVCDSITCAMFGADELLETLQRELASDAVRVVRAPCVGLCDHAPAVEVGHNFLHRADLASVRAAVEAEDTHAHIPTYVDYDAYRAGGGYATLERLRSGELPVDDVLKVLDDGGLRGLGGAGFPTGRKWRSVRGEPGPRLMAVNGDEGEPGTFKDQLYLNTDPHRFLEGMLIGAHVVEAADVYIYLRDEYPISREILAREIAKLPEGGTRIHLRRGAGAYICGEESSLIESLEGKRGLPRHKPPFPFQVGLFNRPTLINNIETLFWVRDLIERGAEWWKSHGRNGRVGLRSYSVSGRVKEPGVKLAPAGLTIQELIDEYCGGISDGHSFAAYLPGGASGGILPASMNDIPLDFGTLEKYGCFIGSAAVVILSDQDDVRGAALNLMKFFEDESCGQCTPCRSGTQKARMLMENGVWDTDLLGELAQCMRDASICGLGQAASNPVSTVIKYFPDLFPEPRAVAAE
# [3] = target: T1, recombinant MeFDH1 (alpha/beta heterodimer), MeFDH1-β FMN / diaphorase site; assay: formate oxidation coupled to NAD+ reduction, A340; assay type: biochemical; conditions: 30 mM potassium formate, 0.5 mM NAD+, 50 mM MOPS, 30 °C; pH not given; site in beta inferred by homology
smiles,measurement,setting,value
Cc1cc2nc3c(=O)[nH]c(=O)nc-3n(C[C@H](O)[C@H](O)[C@H](O)COP(=O)(O)O)c2cc1C [FMN],"cryo-EM structure, 2.8 Å",[1],FMN is coordinated at the center of the MeFDH1-β subunit
O=CO [formate],"formate oxidation coupled to NAD+ reduction, A340",[2],measuring its formate oxidation reaction coupled with NAD^+ reduction
NC(=O)c1ccc[n+]([C@@H]2O[C@H](COP(=O)(O)OP(=O)(O)OC[C@H]3O[C@@H](n4cnc5c(N)ncnc54)[C@H](O)[C@@H]3O)[C@@H](O)[C@H]2O)c1 [NAD^+],"formate oxidation coupled to NAD+ reduction, A340",[3],measuring its formate oxidation reaction coupled with NAD^+ reduction
